Assay results published in patent publication US20200237871A1, “METHODS FOR MITIGATING LIVER INJURY AND PROMOTING LIVER HYPERTROPHY, REGENERATION AND CELL ENGRAFTMENT IN CONJUNCTION WITH RADIATION AND/OR RADIOMIMETIC TREATMENTS” (Janssen Pharmaceutica NV, priority 2019, published 2020).
Entries after “also recorded” stand apart in the source; their conditions may differ.

What was measured:
[1] = test system: mice with normal or cirrhotic (CCl4) livers; test: SPECT-CT residual perfusion defect volume after hepatic irradiation (Example 2); type: in vivo, mouse
Method: 8-12-week-old male and female Di-peptyl peptidase IV (DPPIV) −/− knockout mice and 8-12-week-old male and female C57Bl6 mice were used in this study. Animals were weighed in the beginning of the experiment and before tissue collection. All animals were housed in the Institute for Animal Studies at Albert Einstein College of medicine and fed regular rodent chow. All experiments were performed to according to protocols approved by Institutional Animal Care and Use Committee at Albert Einstein College of Medicine. Animals were made cirrhotic using CCl4 administration (intraperitoneal [IP] injections twice a week for at least 11 weeks).
Image-guided external beam irradiation was performed using a small animal radiation research platform (SARRP, Xstrahl Inc., Suwanee, Ga.). Mice were given gastrografin contrast through gavage to improve visualization of the gastrointestinal (GI) tract. After approximately 2 minutes, mice were positioned on a tubular couch and anesthetized with ˜2% Isofluorane (Isothesia, USP) in 2 L/min pure oxygen. A cone-beam computed tomography (CBCT) scan was acquired and a treatment plan irradiating the median lobe and right lobe was generated using the MuriPlan software. To minimize toxicity, in contrast to Example 1 where two parallel opposed fields were used, irradiation was performed using 2 arcs per liver target with equal dosing weights (likely resulting in more collateral lower dose radiation exposure compared to Example 1). Within the targeted lobes, the position of the isocenter was chosen to minimize irradiation of the GI tract, spine, and heart (the maximum dose to these organs was kept below 10 Gy). Targets were irradiated with 50 Gy X-rays at 220 kVp energy and 13 mA tube current (dose rate of 2.4-2.5 Gy/min) using a 1 mm copper filter for beam hardening. (Brodin et al., The Radiation Safety Journal, 2015, 109 Supp 3, S190).
TPOm was diluted in sterile PBS to a 10 mg/ml stock. The stock was stored at −20° C. and allowed to come to room temperature prior to administration. TPOm was administered as a single dose (300 μg/kg) via subcutaneous injection 10 minutes after the transplant procedure.
LSEC transplantation is a novel technique that requires a strong growth stimulus for effective liver repopulation (Guha et al., Hepatology, 2002, 36:354-62; Laconi et al., Am. J. Pathol., 1998, 153:319-29). Following isolation of LSECs, 500×10^5 LSECs are transplanted via intrasplenic injection into healthy adult mice anesthetized with Isoflurane (Isothesia, USP) 24 hrs post HIR. […]
SPECT with a radiotracer to assess the progression of RILD in-vivo has been developed and utilized in this work. […] The CT was set on medium resolution and was measured by a dosimeter and read by a third-party company, at an exposure of 5 mRem/hr for each CT scan/animal. […]

C57BL6 male mice = test: Volume of untreated (non-irradiated) caudate lobe after partial hepatic irradiation (Example 1); type: in vivo, mouse; conditions: 50 Gy to median lobe; 300 μg/kg sc 10 minutes after irradiation; one month after HIR; n=4 per group; p-value <0.00932
Method: 8-12-week-old C57BL6 male mice were housed in the Institute for Animal Studies at Albert Einstein College of Medicine and fed regular chow. Animals were weighed in the beginning of the experiment and before tissue collection. All experiments were performed to according to protocols approved by Institutional Animal Care and Use Committee at Albert Einstein College of Medicine.
Image-guided external beam irradiation was performed using a small animal radiation research platform (SARRP, Xstrahl Inc., Suwanee, Ga.). Mice were given gastrografin contrast through gavage to improve visualization of the gastrointestinal (GI) tract. After approximately 2 minutes, mice were positioned on a tubular couch and anesthetized with ˜2% Isofluorane (Isothesia, USP) in 2 L/min pure oxygen. A cone-beam computed tomography (CBCT) scan was acquired and a treatment plan irradiating the median lobe and right lobe was generated using the MuriPlan software. To minimize toxicity, irradiation was performed using 2 parallel opposed fields. […]
With fixed physiologic organ size, non-irradiated liver undergoes hypertrophy in effort to compensate for the irradiated atrophic lobe. The volume of the caudate lobe was measured as a non-irradiated lobe in this experiment.

Substance: methoxypolyethyleneglycol20000-propionyl-L-Isoleucyl-L-Glutamyl-Glycyl-L-Prolyl-L-Threonyl-L-Leucyl-L-Arginyl-L-Glutaminyl-L-2-Naphthylalanyl-L-Leucyl-L-Alanyl-L-Alanyl-L-Arginyl-Sarcosyl-Ne-(methoxypolyethyleneglycol20000-propionyl-L-Isoleucyl-L-Glutamyl-Glycyl-L-Prolyl-L-Threonyl-L-Leucyl-L-Arginyl-L-Glutaminyl-L-2-Naphthyl alanyl-L-Leucyl-L-Alanyl-L-Alanyl-L-Arginyl-Sarcosyl-)-Lysinamide [RWJ-800088]
- perfusion defect of irradiated liver tissue (SPECT-CT), in words ([1]; LSEC transplant followed by TPOm injection post irradiation): perfusion recovery; also recorded: significant mitigation of defect formation
- residual defect 2 months post radiation, cirrhotic liver ([1]; cirrhotic livers, RWJ-800088 and LSEC transplantation 24-hours post irradiation, listed as TPOm): significantly reduced
- mean residual defect volume in the irradiated region ([1]; normal livers, RWJ-800088 2 or 24 hours prior to irradiation, without LSEC transplant, 2 months post HIR, listed as TPOm): significant reduction in defect volume
- residual defect volume in the irradiated area ([1]; normal livers, RWJ-800088 and LSEC transplantation 24 hours after irradiation, 2 months post HIR, p=0.03, HIR only 71.4%): 18.2%
- non-irradiated caudate lobe size, HIR+TPOm vs. HIR+saline (C57BL6 male mice): significant increase
